# Reference: patent US20120004307A1, “ORAL TREATMENT OF DIGITAL ISCHEMIC LESIONS” (priority 2010, published 2012)
# Read-outs that look alike come from different tables or passages of the source.
# What was measured:
# [1] = DISTOL-1 randomized Phase IIB study of oral treprostinil diethanolamine versus placebo, digital ulcers in systemic sclerosis; type: in vivo, human
# Description: Primary: To assess the effect of oral treprostinil in reducing net ulcer burden compared to placebo in patients with systemic sclerosis (SSc) as measured by the change in net ulcer burden from Baseline to Follow-up between treatment groups at 20 weeks. […] Target enrollment of […] patients to complete 128 subjects. […] Primary analysis: effect of treprostinil versus placebo on change in net ulcer burden at Week 20 evaluated using non-parametric analysis of covariance within the framework of the extended Cochran-Mantel-Haenszel test.
# [2] = for subjects who tolerated the dose: 10 SSc patients
# Protocol: During a phase I PK trial of oral treprostinil in SSc patients, the goal was to quantify changes in perfusion as assessed by laser Doppler imaging (LDI) and to determine whether improvements in perfusion correlated with drug concentration.
# 10 SSc patients with recent or active DU participated in the study.
# Dosing: Oral treprostinil titrated up to 4 mg twice daily (BID) as tolerated over 6-8 weeks. Pharmokinetics (PK) and laser Doppler imaging (LDI) assessments: performed when subjects achieved the 2 mg and 4 mg (or maximally tolerated dose) doses. […] 8 serial measures of digital perfusion and drug concentration were obtained over 12 hours at each of the 2 study visits.
# Repeated measures analyses were performed using random effects model. Dependent variables were perfusion and skin temperature. The predictor of interest was log-transformed drug concentration. Covariates with p-values less than 0.15 were kept in the model. All data was used, across time points, visits, and hands.
# [3] = 4 mg visit (but not the 2 mg visit), adjusted for time points of Doppler assessment
# [4] = Subject 6, 4 mg visit, baseline at drug trough prior to administration of 4 mg dose
# [5] = Subject 6, 4 mg visit, twelve hours after dosing
structure (smiles),measurement,setting,value
"CCCCC[C@H](O)CC[C@@H]1[C@H]2Cc3cccc(OCC(=O)O)c3C[C@H]2C[C@H]1O.OCCNCCO [treprostinil diethanolamine, Treprostinil diethanolamine]",change in net ulcer burden at Week 20,[1]; ACA negative subset of patients,statistically significant changes were observed
same,Time to Cardinal Ulcer Healing (mean days),[1]; Active n = 71,76.3 ± 35 days
same,Time to all Ulcers Healed (mean days),[1]; Active n = 71,90.2 ± 35.6 days
same,Mean # of new ulcers,"[1]; Active n = 71, listed under new ulcers formed after Week 5",0.9
same,All Ulcers Healed,"[1]; Active n = 71, number (%)",35 (49%)
same,Any new ulcers formed after Week 5? At least one new,"[1]; Active n = 71, number (%)",27 (38%)
same,Any new ulcers formed after Week 5? No new,"[1]; Active n = 71, number (%)",30 (42%)
same,Any new ulcers formed during study? At least one new,"[1]; Active n = 71, number (%)",39 (55%)
same,Any new ulcers formed during study? No new,"[1]; Active n = 71, number (%)",24 (34%)
same,Cardinal Ulcer Healed,"[1]; Active n = 71, number (%)",44 (62%)
same,Discontinuations: Adverse Event,"[1]; Active n = 72, number (%) of subjects",9 (13%)
same,Mean Change in Net Ulcer Burden Week 20 P value,[1]; Subgroup (ACA) Negative (n = 40/34),0.01
same,Mean Change in Net Ulcer Burden Week 20 P value,[1]; Subgroup (ACA) Positive (n = 19/29),0.97
same,Mean Change in Net Ulcer Burden Week 20 P value,[1]; Subgroup (ATA) Negative (n = 32/38),0.58
same,Mean Change in Net Ulcer Burden Week 20 P value,[1]; Subgroup (ATA) Positive (n = 27/22),0.06
same,Mean Change in Net Ulcer Burden Week 20 P value,[1]; Subgroup >2 active ulcers at Baseline (n = 10/10),0.51
same,Mean Change in Net Ulcer Burden Week 20 P value,[1]; Subgroup ACA Negative/ATA Positive (n = 20/15),0.013
same,Mean Change in Net Ulcer Burden Week 20 P value,[1]; Subgroup Diffuse SSc (n = 31/21),0.32
same,Mean Change in Net Ulcer Burden Week 20 P value,[1]; Subgroup Limited SSc (n = 42/55 Active/Placebo),0.42
same,Mean Change in Net Ulcer Burden Week 20 P value,[1]; Subgroup No PDEI background (n = 59/63),0.21
same,Mean Change in Net Ulcer Burden Week 20 P value,[1]; Subgroup PDEI background (n = 12/13),0.90
same,Mean Change in Net Ulcer Burden Week 20 P value,[1]; Subgroup ≦2 active ulcers at Baseline (n = 61/66),0.10
same,Patient Global and Digital Ulcer pain VAS,[1]; Week 20,Improvement not reaching statistical significance
same,symptomatic relief of pain and functional deficits associated with ischemic vascular disease,"[1]; patients with scleroderma and digital ulcers, orally administered",provided symptomatic relief of pain
same,"change in net ulcer burden at Week 20, primary analysis","[1]; total population, versus placebo",did not achieve statistical significance
same,subjects who tolerated the dose,[2]; 2 mg BID by the first PK visit,Nine
same,subjects who tolerated the dose,[2]; 4 mg BID by the 2nd PK visit,6 subjects
same,association of digital skin temperature with log-transformed plasma concentration,[2]; [3],positively associated
same,association of perfusion with log-transformed plasma concentration,[2]; [3],positively associated
same,perfusion versus drug exposure,"[2]; AUCs, FIG. 4",increase in perfusion was observed with an increase in drug exposure
same,plasma concentration versus dose,"[2]; AUCs, FIG. 4",increase in plasma concentration was observed with an increase in dose
same,mean perfusion (laser Doppler imaging),[2]; [4],89.3 units
same,skin temperature,[2]; [4],25 °C
same,perfusion (laser Doppler imaging),[2]; [5],298.3 units
same,skin temperature,[2]; [5],32 °C
same,adverse effects,[2]; titrated up to 4 mg BID over 6-8 weeks,transient and typical of prostacyclin therapy
